Assay results: publication PMC3103600 (Journal of natural products, 2011)
Like-named read-outs stand apart in the source and are kept apart here.

Columns and labels:
native luciferase = native luciferase (Photinus pyralis, UniProt P08659); assay: Counter-screen against native luciferase; type: biochemical, firefly
[1] = tested on: Her2, Akt, Raf-1, Hsp70, Hsp90 in MCF7 cells; assay: Western blot of Hsp90 client proteins and heat shock proteins, MCF7; type: cell-based; details: MCF7, 36 h
[2] = tested on: Her2, Akt, Raf-1, Hsp70, Hsp90 in Sk-Br3 cells; assay: Western blot of Hsp90 client proteins and heat shock proteins, SkBr3; type: cell-based; details: Sk-Br3, 36 h
[3] = tested on: Hsp90, Hsp70 and Cdc37 with HRI/K199R; type: biochemical; details: low ionic strength wash
[4] = molecular target: full length Hsp90 (human Hsp90β) (Homo sapiens, UniProt P08238); assay: SPR binding to full length Hsp90; details: full length Hsp90, 25 °C
[5] = molecular target: Hsp90NT (N-terminal domain of Hsp90α, amino acids 1–241) (Homo sapiens, UniProt P07900); assay: SPR binding to N-terminal domain of Hsp90
[6] = molecular target: Hsp90CT (C-terminal domain of Hsp90, amino acids 531–732) (Homo sapiens, UniProt P07900); assay: SPR binding to C-terminal domain of Hsp90
[7] = tested on: heme-regulated eIF2α kinase (HRI); assay: Hsp90-dependent HRI maturation/activation in heme-deficient reticulocyte lysate; details: 45 min
[8] = tested on: heme-regulated eIF2α kinase (HRI); assay: Stability of [35S]HRI in reticulocyte lysate; type: biochemical; details: 45 min, heme-deficient lysate

Sequence of native luciferase (P08659 whole entry): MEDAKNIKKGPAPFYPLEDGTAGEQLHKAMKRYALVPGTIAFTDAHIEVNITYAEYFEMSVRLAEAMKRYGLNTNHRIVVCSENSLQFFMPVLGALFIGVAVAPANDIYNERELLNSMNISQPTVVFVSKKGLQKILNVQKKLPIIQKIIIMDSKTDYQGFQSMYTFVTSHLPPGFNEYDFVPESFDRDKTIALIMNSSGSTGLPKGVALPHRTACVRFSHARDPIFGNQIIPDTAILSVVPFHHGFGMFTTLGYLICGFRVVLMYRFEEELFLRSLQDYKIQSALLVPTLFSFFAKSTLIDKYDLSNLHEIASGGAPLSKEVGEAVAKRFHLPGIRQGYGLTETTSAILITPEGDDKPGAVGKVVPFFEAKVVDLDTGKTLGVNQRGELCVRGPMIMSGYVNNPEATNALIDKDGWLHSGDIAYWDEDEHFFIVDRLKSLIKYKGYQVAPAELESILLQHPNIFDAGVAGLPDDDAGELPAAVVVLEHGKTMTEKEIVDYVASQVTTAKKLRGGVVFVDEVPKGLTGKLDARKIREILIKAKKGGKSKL
Sequence of full length Hsp90 (human Hsp90β) (P08238 whole entry, the tested form may be a part): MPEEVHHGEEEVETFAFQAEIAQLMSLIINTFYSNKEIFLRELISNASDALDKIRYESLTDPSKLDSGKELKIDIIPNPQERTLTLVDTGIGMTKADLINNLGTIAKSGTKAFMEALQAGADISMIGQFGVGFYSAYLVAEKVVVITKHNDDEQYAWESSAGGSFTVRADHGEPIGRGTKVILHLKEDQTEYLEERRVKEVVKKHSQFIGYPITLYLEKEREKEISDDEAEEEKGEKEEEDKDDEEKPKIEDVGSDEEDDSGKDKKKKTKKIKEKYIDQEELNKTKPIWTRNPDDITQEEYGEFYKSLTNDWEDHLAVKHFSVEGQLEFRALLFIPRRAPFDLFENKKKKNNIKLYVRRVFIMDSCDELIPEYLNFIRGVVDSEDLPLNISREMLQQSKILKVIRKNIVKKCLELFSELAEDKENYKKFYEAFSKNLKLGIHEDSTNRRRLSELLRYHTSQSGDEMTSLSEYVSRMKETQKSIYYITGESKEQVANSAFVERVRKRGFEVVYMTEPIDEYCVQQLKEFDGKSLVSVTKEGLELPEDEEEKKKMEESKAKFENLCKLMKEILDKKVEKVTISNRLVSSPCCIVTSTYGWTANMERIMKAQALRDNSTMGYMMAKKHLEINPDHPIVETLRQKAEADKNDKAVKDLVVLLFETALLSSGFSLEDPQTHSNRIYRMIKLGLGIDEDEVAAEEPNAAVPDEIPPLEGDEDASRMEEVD

CC(C)=CCC[C@]1(C)C=Cc2c(O)c3c(c(CC=C(C)C)c2O1)O[C@]12C(=C[C@@H]4C[C@H]1C(C)(C)O[C@@]2(C/C=C(/C)C(=O)O)C4=O)C3=O [Compound 1, (−)-gambogic acid]
direct effect on the activity of native luciferase (native luciferase): Neither celastrol nor 1 had any direct effect
depletion of Hsp90-dependent proteins Her2, Akt, Raf-1 [1]: deplete MCF7 and Sk-Br3 cells of Her2, Akt and Raf-1 in a concentration dependent fashion
induction of Hsp90 and Hsp70 expression [1]: induced Hsp90 and Hsp70 expression
depletion of Hsp90-dependent proteins Her2, Akt, Raf-1 [2]: deplete MCF7 and Sk-Br3 cells of Her2, Akt and Raf-1 in a concentration dependent fashion
induction of Hsp90 and Hsp70 expression [2]: induced Hsp90 and Hsp70 expression
effect on binding of Hsp90, Hsp70, Cdc37 to HRI/K199R ([3]; 50 µM): disrupted the binding of Hsp90, Hsp70, and Cdc37 to HRI
kd [4]: 0.0113(4) S^−1
kd ([5]; 25 °C): 0.01122(7) S^−1
kd ([5]; +20 µM GA in analyte buffer): 0.0114(7) S^−1
KD [6]: no binding
ka [6]: no binding
kd [6]: no binding
effect on HRI maturation/activation ([7]; 50 µM): inhibited the maturation/ activation of HRI

CC1=C(O)C(=O)C=C2C1=CC=C1[C@@]2(C)CC[C@@]2(C)[C@@H]3C[C@](C)(C(=O)O)CC[C@]3(C)CC[C@]12C [Compound 2, celastrol]
direct effect on the activity of native luciferase (native luciferase): Neither celastrol nor 1 had any direct effect
effect on binding of Hsp90, Hsp70, Cdc37 to HRI/K199R ([3]; 100 µM): disrupted the binding of Hsp90, Hsp70, and Cdc37 to HRI
effect on HRI maturation/activation ([7]; 100 µM): inhibited the maturation/ activation of HRI

COC1=C2C[C@@H](C)C[C@H](OC)[C@H](O)[C@@H](C)/C=C(\C)[C@H](OC(N)=O)[C@@H](OC)/C=C\C=C(/C)C(=O)NC(=CC1=O)C2=O [Compound 3, geldanamycin]
loss of [35S]HRI compared to the DMSO control ([8]; 80 µM): 0%
effect on HRI maturation/activation ([7]; 80 µM): inhibited the maturation/ activation of HRI

CO[C@@H]1[C@@H](OC(N)=O)[C@@H](O)[C@H](Oc2ccc3c(O)c(NC(=O)c4ccc(O)c(CC=C(C)C)c4)c(=O)oc3c2C)OC1(C)C [Compound 4, novobiocin]
effect on binding of Hsp90, Hsp70, Cdc37 to HRI/K199R ([3]; 4.0 mM): disrupted the interaction of Hsp90, Hsp70 and Cdc37 with HRI/K199R
effect on HRI maturation/activation ([7]; 4.0 mM): also inhibited the maturation/ activation of HRI

CO[C@H]1[C@H](OC(=O)c2ccc(C)[nH]2)[C@H](O)[C@@H](Oc2ccc3c(O)c(NC(=O)c4c[nH]c(C(=O)Nc5c(O)c6ccc(O[C@H]7OC(C)(C)[C@@H](OC)[C@H](OC(=O)c8ccc(C)[nH]8)[C@@H]7O)c(C)c6oc5=O)c4C)c(=O)oc3c2C)OC1(C)C [Compound 5, coumermycin A1]
effect on binding of Hsp90, Hsp70, Cdc37 to HRI/K199R ([3]; 400 µM): disrupted the interaction of Hsp90, Hsp70 and Cdc37 with HRI/K199R
effect on HRI maturation/activation ([7]; 400 µM): also inhibited the maturation/ activation of HRI

[Na+].[Na+].[O]=[Mo](=[O])([O-])[O-] [molybdate, sodium molybdate]
effect on binding of Hsp90, Hsp70, Cdc37 to HRI/K199R ([3]; 20 mM): stabilized the binding of Hsp90 and Cdc37 to HRI/K199R, while not affecting the interaction of Hsp70 with HRI/K199R
loss of [35S]HRI compared to the DMSO control ([8]; 20 mM): 10%
effect on HRI maturation/activation ([7]; 20 mM): inhibited the maturation/ activation of HRI
